Results on 28 compounds are retold here after patent publication US20230086703A1, “N-(4-(5-chloropyridin-3-yl)phenyl)-2-(2-(cyclopropanesulfonamido)pyrimidin-4-yl) butanamide derivatives and related compounds as human CTPS1 inhibitors for the treatment of proliferative diseases” (Step Pharma S.A.S., priority 2019, published 2023).

Like-named read-outs stand apart in the source and are kept apart here.

The target of this experiment is T1, human CTPS1 (Homo sapiens, UniProt P17812).
T1 construct: FLAG (with GG linker); His8 (with GG linker); purchased Proteros biostructures GmbH
T1 sequence (P17812 1-591): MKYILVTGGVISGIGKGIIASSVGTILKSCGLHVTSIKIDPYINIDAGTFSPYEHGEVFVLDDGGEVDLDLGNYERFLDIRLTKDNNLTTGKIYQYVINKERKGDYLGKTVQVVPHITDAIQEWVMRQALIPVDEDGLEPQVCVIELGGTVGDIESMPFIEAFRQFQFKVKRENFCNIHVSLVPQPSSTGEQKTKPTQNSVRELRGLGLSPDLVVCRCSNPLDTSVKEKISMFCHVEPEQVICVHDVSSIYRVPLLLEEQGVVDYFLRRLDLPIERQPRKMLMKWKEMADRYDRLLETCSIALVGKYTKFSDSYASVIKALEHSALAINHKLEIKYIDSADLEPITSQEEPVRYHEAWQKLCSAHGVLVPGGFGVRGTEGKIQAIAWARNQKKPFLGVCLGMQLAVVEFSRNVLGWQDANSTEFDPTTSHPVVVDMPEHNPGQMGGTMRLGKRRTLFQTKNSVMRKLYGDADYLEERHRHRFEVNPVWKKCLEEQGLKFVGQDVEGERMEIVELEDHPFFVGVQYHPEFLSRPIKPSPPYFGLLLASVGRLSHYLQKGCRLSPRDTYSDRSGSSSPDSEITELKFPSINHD
The experiment is described as follows: Human CTPS1 enzyme inhibition, ADP-Glo Max assay. Type of experiment: biochemical. How it is done: The enzyme inhibitory activities of compounds invented against the target of interest were determined using the ADP-Glo™ Max assay (Promega, UK). Assays for human CTPS1 were performed in 1× assay buffer containing 50 mM Tris, 10 mM MgCl2, 0.01% Tween-20, pH to 8.0 accordingly. Finally, immediately before use, L-cysteine was added to the 1× assay buffer to a final concentration of 2 mM. All reagents are from Sigma-Aldrich unless specified otherwise.
3× human CTPS1 protein was prepared in 1× assay buffer to the final working protein concentration required for the reaction. A 2 uL volume per well of 3× human CTPS1 protein was mixed with 2 uL per well of 3× test compound (compound prepared in 1× assay buffer to an appropriate final 3× compound concentration respective to the concentration response curve designed for the compounds under test) for 10 minutes at 25° C. […] ADP-Glo™ Max reagent was added for 60 minutes (6 μL per well) and subsequently ADP-Glo™ Max development reagent was added for 60 minutes (12 uL per well) prior to signal detection in a microplate reader (EnVision® Multilabel Reader, Perkin Elmer). Following each reagent addition over the course of the assay, assay plates were pulse centrifuged for 30 seconds at 500 rpm.
In all cases, the enzyme converts ATP to ADP and the ADP-Glo™ Max reagent subsequently depletes any remaining endogenous ATP in the reaction system. The ADP-Glo™ Max detection reagent converts the ADP that has been enzymatically produced back into ATP and using ATP as a substrate together with luciferin for the enzyme luciferase, light is generated which produces a detectable luminescence. […] The percentage inhibition produced by each concentration of compound was calculated using the equation shown below: […]
For orientation: In ADP-Glo the light output rises with the ADP produced.

Setting [1] is: ADP-Glo Max assay, Table 10, read-out: Human CTPS1 Enzyme Inhibition, IC50 grouped by potency range (CTPS1).
Where [2] appears, read: Table 12, ADP-Glo Max assay, read-out: CTPS1 (Human CTPS1 Enzyme Inhibition data grouped by potency range).

`CC(C)(C(=O)Nc1ccc(-c2cccnc2)cc1)c1csc(NS(C)(=O)=O)n1` [T163, 2-methyl-2-(2-(methylsulfonamido)thiazol-4-yl)-N-(4-(pyridin-3-yl)phenyl)propanamide]: the IC50 under setting [1] lay in the range of 100 to 1000 nM.

For the compound `COc1ncc(-c2ccc(NC(=O)Cc3csc(NS(=O)(=O)C4CC4)n3)cc2)cn1` [T242, 2-(2-(cyclopropanesulfonamido)thiazol-4-yl)-N-(4-(2-methoxypyrimidin-5-yl)phenyl)acetamide], under setting [1], the IC50 was 1000 to 10000 nM. On to `CCOc1cncc(-c2ccc(NC(=O)C3(c4ccnc(NS(=O)(=O)C5CC5)n4)CCC(N(C)CC(F)F)CC3)nc2)n1` (stereo not shown) [P310], for which, under setting [2], the IC50 is below 100 nM. The same measure, in the same setting: with `CCOc1cncc(-c2ccc(NC(=O)C3(c4ccnc(NS(=O)(=O)C5CC5)n4)CCC(N4CCN(C)CC4)CC3)nc2)n1` (stereo not shown) [P311] the figure was 100 to 1000 nM. `CCOc1cncc(-c2ccc(NC(=O)C3(c4ccnc(NS(=O)(=O)C5CC5)n4)CCN(C(=O)OC(C)(C)C)CC3)nc2)n1` [P139, tert-butyl 4-(2-(cyclopropanesulfonamido)pyrimidin-4-yl)-4-((5-(6-ethoxypyrazin-2-yl)pyridin-2-yl)carbamoyl)piperidine-1-carboxylate]: for the setting “ADP-Glo Max assay, human full length CTPS1, read-out: CTPS1 (Human CTPS1 Enzyme Inhibition data grouped by potency range, IC50)”, the IC50 was below 100 nM. In the case of `O=C(Cc1csc(NS(=O)(=O)C2CC2)n1)Nc1ccc(-c2ccc(F)cc2)cc1` [T25, 2-(2-(cyclopropanesulfonamido)thiazol-4-yl)-N-(4′-fluoro-[1,1′-biphenyl]-4-yl)acetamide], the IC50 under setting [1] was in the range of 1000 to 10000 nM. Same read-out and setting: with `CC(C)CS(=O)(=O)Nc1nc(C(C)(C)C(=O)Nc2ccc(-c3cccnc3)cc2)cs1` [T311, 2-methyl-2-(2-((2-methylpropyl)sulfonamido)thiazol-4-yl)-N-(4-(pyridin-3-yl)phenyl)propanamide] the figure was 1000 to 10000 nM. Take `CCOC(=O)CN1CCC(C(=O)Nc2ccc(-c3cncc(OCC)n3)cn2)(c2nccc(NS(=O)(=O)C3CC3)n2)CC1` [P295]: under setting [2], the IC50 is below 100 nM.

As to `CC(C)(C(=O)Nc1ccc(-c2cccc(N3CCOCC3)c2)cn1)c1csc(NS(=O)(=O)C2CC2)n1` [T238, 2-(2-(cyclopropanesulfonamido)thiazol-4-yl)-2-methyl-N-(5-(3-morpholinophenyl)pyridin-2-yl)propanamide], the IC50 under setting [1] lay in the range of 1000 to 10000 nM. Consider `COc1cc(-c2cncc(C)c2)ccc1NC(=O)C(C)(C)c1csc(NS(=O)(=O)C2CC2)n1` [T258, 2-(2-(cyclopropanesulfonamido)thiazol-4-yl)-N-(2-methoxy-4-(5-methylpyridin-3-yl)phenyl)-2-methylpropanamide], for which the IC50 under setting [1] was in the range of 100 to 1000 nM.

Consider `O=C(Cc1csc(NS(=O)(=O)C2CC2)n1)Nc1ccc(-c2cnccn2)cc1` [T82, 2-(2-(cyclopropanesulfonamido)thiazol-4-yl)-N-(4-(pyrazin-2-yl)phenyl)acetamide], for which, under setting [1], the IC50 is below 100 nM. Still for that read-out and setting: under `CCC(CC)(C(=O)Nc1ccc(-c2cncc(OC)n2)cc1)c1csc(NS(=O)(=O)C2CC2)n1` [T119, 2-(2-(cyclopropanesulfonamido)thiazol-4-yl)-2-ethyl-N-(4-(6-methoxypyrazin-2-yl)phenyl)butanamide] stands below 100 nM; under `CC(C)(C(=O)Nc1ccc(-c2cncc(C(F)(F)F)n2)cc1)c1csc(NS(=O)(=O)C2CCC2)n1` [T308, 2-(2-(cyclobutanesulfonamido)thiazol-4-yl)-2-methyl-N-(4-(6-(trifluoromethyl)pyrazin-2-yl)phenyl)propanamide], 100 to 1000 nM. For `CCCOc1cncc(-c2ccc(NC(=O)C(C)(C)c3csc(NS(=O)(=O)C4CC4)n3)cc2)c1` [T157, 2-(2-(cyclopropanesulfonamido)thiazol-4-yl)-2-methyl-N-(4-(5-propoxypyridin-3-yl)phenyl)propanamide], the IC50 under setting [1] was below 100 nM.

Turning to `CC(C)(C(=O)Nc1ncc(-c2cncc(C#N)c2)cc1F)c1csc(NS(=O)(=O)C2CC2)n1` [T228, N-(5′-cyano-5-fluoro-[3,3′-bipyridin]-6-yl)-2-(2-(cyclopropanesulfonamido)thiazol-4-yl)-2-methylpropanamide], under setting [1], the IC50 is below 100 nM. On the same count and under the same terms, with `CCOc1cncc(-c2ccc(NC(=O)C(C)(C)c3csc(NS(C)(=O)=O)n3)cc2)n1` [T434, N-(4-(6-ethoxypyrazin-2-yl)phenyl)-2-methyl-2-(2-(methylsulfonamido)thiazol-4-yl)propanamide] the figure was below 100 nM; with `CCC(C(=O)Nc1ccc(-c2cccnc2)cn1)c1csc(NS(=O)(=O)C2CC2)n1` (stereo not shown) [T62, N-([3,3′-bipyridin]-6-yl)-2-(2-(cyclopropanesulfonamido)thiazol-4-yl)butanamide], 100 to 1000 nM. The same measure, in the same setting: under `Cc1ncc(Cl)nc1-c1ccc(NC(=O)C(C)(C)c2csc(NS(=O)(=O)C3CC3)n2)cc1` [T276, N-(4-(6-chloro-3-methylpyrazin-2-yl)phenyl)-2-(2-(cyclopropanesulfonamido)thiazol-4-yl)-2-methylpropanamide] stands 100 to 1000 nM; under `CC(C)Oc1cncc(-c2ccc(NC(=O)C(C)(C)c3csc(NS(=O)(=O)C4CC4)n3)cc2)c1` [T158, 2-(2-(cyclopropanesulfonamido)thiazol-4-yl)-N-(4-(5-isopropoxypyridin-3-yl)phenyl)-2-methylpropanamide], below 100 nM. The same measure, in the same setting: under `CCCOc1cncc(-c2ccc(NC(=O)C(CC)(CC)c3csc(NS(=O)(=O)C4CC4)n3)cc2)n1` [T123, 2-(2-(cyclopropanesulfonamido)thiazol-4-yl)-2-ethyl-N-(4-(6-propoxypyrazin-2-yl)phenyl)butanamide] stands below 100 nM; under `CC(C)(C(=O)Nc1ccc(-c2cncc(C#N)c2)cn1)c1csc(NS(=O)(=O)C2CC2)n1` [T226, N-(5′-cyano-[3,3′-bipyridin]-6-yl)-2-(2-(cyclopropanesulfonamido)thiazol-4-yl)-2-methylpropanamide], below 100 nM. With `CC(C)(C(=O)Nc1ccc(-c2cncc(OC(F)F)c2)cc1F)c1csc(NS(=O)(=O)C2CC2)n1` [T139, 2-(2-(cyclopropanesulfonamido)thiazol-4-yl)-N-(4-(5-(difluoromethoxy)pyridin-3-yl)-2-fluorophenyl)-2-methylpropanamide], the IC50 under setting [1] is below 100 nM. Turning to `COc1ncccc1-c1ccc(NC(=O)C(C)(C)c2csc(NS(=O)(=O)C3CC3)n2)cc1` [T44, 2-(2-(cyclopropanesulfonamido)thiazol-4-yl)-N-(4-(2-methoxypyridin-3-yl)phenyl)-2-methylpropanamide], under setting [1], the IC50 lay in the range of 100 to 1000 nM. As to `Cc1cc(-c2cncc(Cl)c2)cc(C)c1NC(=O)C(C)(C)c1csc(NS(=O)(=O)C2CC2)n1` [T321, N-(4-(5-chloropyridin-3-yl)-2,6-dimethylphenyl)-2-(2-(cyclopropanesulfonamido)thiazol-4-yl)-2-methylpropanamide], the IC50 under setting [1] is below 100 nM. Turning to `CC(C)(C(=O)Nc1ccc(-c2cncc(C(F)(F)F)n2)cn1)c1csc(NS(C)(=O)=O)n1` [T425, 2-methyl-2-(2-(methylsulfonamido)thiazol-4-yl)-N-(5-(6-(trifluoromethyl)pyrazin-2-yl)pyridin-2-yl)propanamide], under setting [1], the IC50 is below 100 nM.

For `CCC(C(=O)Nc1ccc(-c2cncc(C(F)(F)F)n2)cc1)c1csc(NS(=O)(=O)C2CC2)n1` (single isomer, unassigned) [T106, 2-(2-(cyclopropanesulfonamido)thiazol-4-yl)-N-(4-(6-(trifluoromethyl)pyrazin-2-yl)phenyl)butanamide], the IC50 under setting [1] is below 100 nM. Same read-out and setting: under `CC(C)(C(=O)Nc1ccc(-c2cncc(F)c2)cc1F)c1csc(NS(=O)(=O)C2CC2)n1` [T126, 2-(2-(cyclopropanesulfonamido)thiazol-4-yl)-N-(2-fluoro-4-(5-fluoropyridin-3-yl)phenyl)-2-methylpropanamide] stands below 100 nM; under `COc1cc(F)cc(-c2ccc(NC(=O)C(C)(C)c3csc(NS(=O)(=O)C4CC4)n3)nc2)c1` [T233, 2-(2-(cyclopropanesulfonamido)thiazol-4-yl)-N-(5-(3-fluoro-5-methoxyphenyl)pyridin-2-yl)-2-methylpropanamide], 1000 to 10000 nM.
